{"source": "paper PMC2137936", "about": "“Molecular Analysis of Thymopentin Binding to HLA-DR Molecules” (PLoS ONE, 2007)", "key": {"[1]": {"test_system": "HLA-DR on the surface of EBV-transformed B cells", "experiment": "Direct binding of FITC-labeled TP5 to EBV-transformed B cells (flow cytometry)", "parameters": "species or system human", "experimental": "Therefore, a quantitative flow cytometric assay was used to get a better insight into the binding affinity of TP5 to HLA-DR on the surface of EBV-transformed B cells. […] Simultaneously, a correlation with R^2 = 0.9903 and a slope of 0.01311 were obtained. We then compared the specific binding of FITC-labeled TP5 to HLA-DR.\nEBV-transformed B cells expressing HLA-DR molecules were maintained in RPMI 1640 containing 2 mM L-glutamine (HyClone Laboratories, UT, USA) supplemented with 10% standard FBS (HyClone Laboratories, UT, USA) at 37°C and in 5% CO2. Expression of HLA-DR was verified using mAb-DR L243 labeled with FITC (Pharmingen, San Diego, USA), by incubation for 45 min on ice followed by CLSM and FCM.\nEBV-transformed B cells (3×10^5 per sample) were incubated with various concentrations of FITC-labeled TP5 in binding buffer for 2 h at 37°C. Thereafter, the cells were washed twice and resuspended in 500 µl PBS, followed by flow cytometric analysis using a FACSCan analyzer (Becton Dickinson Immunochemical Systems, Mountain View, USA). A total of ten thousand events were acquired for each sample. The MFI was used to evaluate the binding ability of FITC-labeled TP5 to APC."}, "[2]": {"test_system": "EBV-transformed B cells expressing HLA-DR", "experiment": "Cellular peptide loading assay (CLSM uptake)", "format": "cell-based, human", "settings": "10 µM, 2 h at 37°C, excitation 488 nm", "experimental": "To validate the ability of FITC-labeled TP5 to load on EBV-transformed B cells expressing HLA-DR, a qualitative CLSM assay was used to examine the fluorescent signal of EBV-transformed B cells. The surface fluorescence was hardly observed from the cells in the absence of FITC-labeled TP5 at the excitation of 488 nm (Fig. 1A).\nWe harvested 3×10^5 cells, washed twice with phosphate-buffered saline (PBS) buffer (pH 7.4) supplemented with 0.1% BSA and 0.05% NaN3. Ten µM FITC- labeled TP5 was added to the treated cells in PBS (pH 7.4) containing 1% BSA (binding buffer), then incubated for 2 h at 37°C. Thereafter, the cells were washed twice and resuspended in 500 µl PBS, followed by CLSM analysis using Leica Microsystems (TCS SP2, Heidelberg, Germany)."}}, "note": "No end group written: not given here.", "data": [{"substance": "FITC-labeled TP5: TP5 conjugated with fluorescein isothiocyanate (FITC) (RKDVY; also: FITC label, position not given here)", "values": [{"measurement": "cells stained above the background", "setting": "[1]; flow cytometry histogram of fluorescence intensities, EBV-transformed B cells (Fig. 4)", "result": 94, "unit": "%"}, {"measurement": "increase in mean fluorescence intensity (MFI) above background", "setting": "[1]; flow cytometry, EBV-transformed B cells versus PBS alone (Fig. 4)", "result": "approximately 3 orders of magnitude"}, {"measurement": "surface fluorescence of cells (uptake)", "setting": "[2]", "result": "strong surface fluorescence"}]}]}
